# In US8933230B2, “Phosphorus-containing group-substituted quinoline, its preparation process, medical composition containing the compounds and application” (priority 2011, dated 2015):
# Experiments:
# VEGFR2 = VEGFR2 (Homo sapiens, UniProt P35968); assay: VEGFR2 kinase phosphorylation in HUE cells (sandwich ELISA); assay type: cell-based; design: cell line HUE having endogenous high expression vascular endothelial growth factor-R2 (VEGFR2); endogenous in cells; host or cells: HUE; conditions: VEGF-A 100 ng/mL 3 min, mean value of two testing results, read-out: IC50 values in the cell, VEGFR2
# VEGFR2, sequence (P35968 20-1356): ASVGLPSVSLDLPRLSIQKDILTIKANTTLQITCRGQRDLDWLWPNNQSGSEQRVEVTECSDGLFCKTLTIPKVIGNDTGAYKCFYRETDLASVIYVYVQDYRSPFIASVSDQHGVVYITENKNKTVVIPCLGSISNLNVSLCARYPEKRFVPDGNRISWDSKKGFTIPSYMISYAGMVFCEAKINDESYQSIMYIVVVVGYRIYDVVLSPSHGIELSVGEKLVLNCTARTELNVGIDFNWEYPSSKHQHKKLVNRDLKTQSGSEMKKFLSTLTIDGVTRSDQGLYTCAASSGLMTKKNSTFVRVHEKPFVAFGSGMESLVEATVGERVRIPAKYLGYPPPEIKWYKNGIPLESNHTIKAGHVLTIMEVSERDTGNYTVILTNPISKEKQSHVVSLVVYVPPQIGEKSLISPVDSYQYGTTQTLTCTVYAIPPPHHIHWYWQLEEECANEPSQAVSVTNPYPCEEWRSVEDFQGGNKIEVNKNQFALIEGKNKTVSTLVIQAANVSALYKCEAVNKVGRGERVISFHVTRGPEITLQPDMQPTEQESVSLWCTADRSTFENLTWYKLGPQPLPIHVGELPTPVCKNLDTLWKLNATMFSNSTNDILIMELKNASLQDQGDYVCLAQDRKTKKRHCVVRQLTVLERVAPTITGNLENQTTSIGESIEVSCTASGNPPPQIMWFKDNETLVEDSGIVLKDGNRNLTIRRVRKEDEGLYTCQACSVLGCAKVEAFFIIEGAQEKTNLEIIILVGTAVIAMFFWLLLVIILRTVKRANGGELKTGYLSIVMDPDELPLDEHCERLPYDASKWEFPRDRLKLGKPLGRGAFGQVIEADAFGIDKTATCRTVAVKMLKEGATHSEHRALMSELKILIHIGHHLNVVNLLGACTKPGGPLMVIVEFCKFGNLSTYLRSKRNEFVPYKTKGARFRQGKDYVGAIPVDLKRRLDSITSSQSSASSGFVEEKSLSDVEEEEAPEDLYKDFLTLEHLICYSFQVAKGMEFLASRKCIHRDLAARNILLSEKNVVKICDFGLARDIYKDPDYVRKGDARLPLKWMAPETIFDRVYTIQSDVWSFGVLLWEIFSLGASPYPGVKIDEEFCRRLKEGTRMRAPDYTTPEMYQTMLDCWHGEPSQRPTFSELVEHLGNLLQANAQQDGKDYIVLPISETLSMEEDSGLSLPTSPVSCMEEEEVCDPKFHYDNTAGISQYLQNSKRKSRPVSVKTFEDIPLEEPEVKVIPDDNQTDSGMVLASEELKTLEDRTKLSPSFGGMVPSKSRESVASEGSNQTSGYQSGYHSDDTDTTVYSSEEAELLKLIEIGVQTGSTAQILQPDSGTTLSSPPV
# Protocol: (§1) Inhibitory activity on the kinases in tumor cells: In this example, the compound prepared in Example 10, N1-[4-[[7-[[1-(diethoxyphosphorylmethyl)-4-piperidinyl]methoxyl]-6-methoxyl-4-quinolyl]oxyl]-3-fluorophenyl]-N1′-(4-fluorophenyl)cyclopropane-1,1-dicarboxamide is tested in tumor cells by ProQinase GmbH corporation (Breisacher Str. 117, D-79106 Freiburg, Germany. www.proqinase.com) for the inhibitory activity on the following kinases: c-KIT, c-MET, VEGFR2 and PDGFR-β. The test includes the following steps:
# (§2) Firstly, the compound according to present invention is dissolved in dimethyl sulfoxide (DMSO) to prepare a 10 mM stock solution, which is diluted serially according to the concentration range shown in Table 6:
# VEGFR2 kinase: in the test experiment of VEGFR2 kinase phosphorylation in the cells, a spontaneous immortalized human umbilical vein endothelial cell line HUE having endogenous high expression vascular endothelial growth factor-R2 (VEGFR2) is used. When these cells are simulated with human vascular endothelial growth factor-A (VEGF-A), it causes the tyrosine of VEGFR2 receptor kinases self-phosphorylated. HUE cells are inoculated in endothelial cell growth medium (ECGM) containing 10% FCS in a multi-well cell culture dish. […]
# c-MET = molecular target: T1, c-MET (Homo sapiens, UniProt P08581); assay: c-MET kinase phosphorylation in MKN45 cells (sandwich ELISA); assay type: cell-based; conditions: without stimulation, mean value of two testing results, read-out: IC50 values in the cell, c-MET
# T1 construct: cell line MKN45 having endogenous high expression wild type c-MET; endogenous in cells; host or cells: MKN45
# T1 sequence (P08581 25-1390): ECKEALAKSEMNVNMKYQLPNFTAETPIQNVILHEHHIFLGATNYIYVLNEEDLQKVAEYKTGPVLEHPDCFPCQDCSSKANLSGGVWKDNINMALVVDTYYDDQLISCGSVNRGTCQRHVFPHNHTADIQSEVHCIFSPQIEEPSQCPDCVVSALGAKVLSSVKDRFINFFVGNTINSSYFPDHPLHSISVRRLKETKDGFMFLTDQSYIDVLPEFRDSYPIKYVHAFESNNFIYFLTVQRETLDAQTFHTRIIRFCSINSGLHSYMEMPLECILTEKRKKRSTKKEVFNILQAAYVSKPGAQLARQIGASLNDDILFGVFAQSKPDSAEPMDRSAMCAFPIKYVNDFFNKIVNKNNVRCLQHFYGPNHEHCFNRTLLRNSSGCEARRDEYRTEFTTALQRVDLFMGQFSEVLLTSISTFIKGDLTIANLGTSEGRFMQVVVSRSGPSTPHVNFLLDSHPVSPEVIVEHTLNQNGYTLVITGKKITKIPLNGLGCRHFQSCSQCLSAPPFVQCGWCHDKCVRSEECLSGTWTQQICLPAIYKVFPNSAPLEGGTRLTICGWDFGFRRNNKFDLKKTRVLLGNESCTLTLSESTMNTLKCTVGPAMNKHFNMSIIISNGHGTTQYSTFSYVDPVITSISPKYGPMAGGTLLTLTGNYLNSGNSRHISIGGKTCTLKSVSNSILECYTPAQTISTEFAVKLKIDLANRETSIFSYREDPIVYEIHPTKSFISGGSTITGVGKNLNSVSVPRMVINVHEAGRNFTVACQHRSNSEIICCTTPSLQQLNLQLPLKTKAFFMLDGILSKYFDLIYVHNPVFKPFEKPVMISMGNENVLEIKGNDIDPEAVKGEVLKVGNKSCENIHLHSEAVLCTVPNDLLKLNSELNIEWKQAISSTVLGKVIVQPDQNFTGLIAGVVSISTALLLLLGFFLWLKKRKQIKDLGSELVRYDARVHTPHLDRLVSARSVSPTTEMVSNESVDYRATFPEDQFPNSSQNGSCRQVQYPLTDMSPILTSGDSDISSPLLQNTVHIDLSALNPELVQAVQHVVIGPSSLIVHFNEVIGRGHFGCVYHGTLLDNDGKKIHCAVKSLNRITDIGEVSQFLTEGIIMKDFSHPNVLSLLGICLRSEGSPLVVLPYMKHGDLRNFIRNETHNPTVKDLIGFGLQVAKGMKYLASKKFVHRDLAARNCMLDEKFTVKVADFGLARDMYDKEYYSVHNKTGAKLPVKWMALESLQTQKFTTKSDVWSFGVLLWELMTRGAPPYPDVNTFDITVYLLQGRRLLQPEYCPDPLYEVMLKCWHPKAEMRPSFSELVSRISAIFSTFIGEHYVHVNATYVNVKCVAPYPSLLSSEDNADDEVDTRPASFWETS
# Protocol: as §1, §2
# c-MET kinase: in the test experiment of c-MET kinase phosphorylation in the cells, human gastric cancer cell line MKN45 having endogenous high expression wild type c-MET (wild-type c-MET) is used. Such high expression of c-MET causes the tyrosine of c-MET receptor kinases constantly self-phosphorylated without ligands. MKN45 cells are inoculated in DMEM culture solution containing 10% FCS in a multi-well cell culture dish. The compound of the invention is added to the cells after serum overnight starvation, then the cells are cultured in a medium without serum. […]
# PFCDPK1 (P. falciparum) = molecular target: T2, PFCDPK1 (P. falciparum) (Plasmodium falciparum, UniProt P62344); assay: KinomeScan kinase panel; assay type: binding
# T2 construct: purchased DiscoveRx Corporation (KinomeScan)
# T2 sequence (P62344 whole entry): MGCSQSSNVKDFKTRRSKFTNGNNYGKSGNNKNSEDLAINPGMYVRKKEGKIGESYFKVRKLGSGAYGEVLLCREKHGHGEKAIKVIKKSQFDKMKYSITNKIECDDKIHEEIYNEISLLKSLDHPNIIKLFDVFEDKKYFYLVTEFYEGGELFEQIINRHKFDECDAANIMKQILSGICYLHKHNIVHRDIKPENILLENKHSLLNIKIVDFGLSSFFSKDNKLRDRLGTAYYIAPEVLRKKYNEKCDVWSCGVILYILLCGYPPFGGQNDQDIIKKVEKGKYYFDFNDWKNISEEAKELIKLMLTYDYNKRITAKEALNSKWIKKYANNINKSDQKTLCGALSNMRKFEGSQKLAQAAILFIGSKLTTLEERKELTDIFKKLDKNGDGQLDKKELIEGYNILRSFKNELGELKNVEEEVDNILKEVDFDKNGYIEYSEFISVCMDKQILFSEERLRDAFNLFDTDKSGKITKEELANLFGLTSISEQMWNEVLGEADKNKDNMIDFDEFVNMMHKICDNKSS
# c-KIT = molecular target: T3, c-KIT (Homo sapiens, UniProt P10721); assay: c-KIT kinase phosphorylation in M07e cells (sandwich ELISA); assay type: cell-based; conditions: SCF 100 ng/mL 3 min, mean value of two testing results, read-out: IC50 values in the cell, c-KIT
# T3 construct: cell line M07e having endogenous high expression wild type c-KIT; endogenous in cells; host or cells: M07e
# T3 sequence (P10721 26-976): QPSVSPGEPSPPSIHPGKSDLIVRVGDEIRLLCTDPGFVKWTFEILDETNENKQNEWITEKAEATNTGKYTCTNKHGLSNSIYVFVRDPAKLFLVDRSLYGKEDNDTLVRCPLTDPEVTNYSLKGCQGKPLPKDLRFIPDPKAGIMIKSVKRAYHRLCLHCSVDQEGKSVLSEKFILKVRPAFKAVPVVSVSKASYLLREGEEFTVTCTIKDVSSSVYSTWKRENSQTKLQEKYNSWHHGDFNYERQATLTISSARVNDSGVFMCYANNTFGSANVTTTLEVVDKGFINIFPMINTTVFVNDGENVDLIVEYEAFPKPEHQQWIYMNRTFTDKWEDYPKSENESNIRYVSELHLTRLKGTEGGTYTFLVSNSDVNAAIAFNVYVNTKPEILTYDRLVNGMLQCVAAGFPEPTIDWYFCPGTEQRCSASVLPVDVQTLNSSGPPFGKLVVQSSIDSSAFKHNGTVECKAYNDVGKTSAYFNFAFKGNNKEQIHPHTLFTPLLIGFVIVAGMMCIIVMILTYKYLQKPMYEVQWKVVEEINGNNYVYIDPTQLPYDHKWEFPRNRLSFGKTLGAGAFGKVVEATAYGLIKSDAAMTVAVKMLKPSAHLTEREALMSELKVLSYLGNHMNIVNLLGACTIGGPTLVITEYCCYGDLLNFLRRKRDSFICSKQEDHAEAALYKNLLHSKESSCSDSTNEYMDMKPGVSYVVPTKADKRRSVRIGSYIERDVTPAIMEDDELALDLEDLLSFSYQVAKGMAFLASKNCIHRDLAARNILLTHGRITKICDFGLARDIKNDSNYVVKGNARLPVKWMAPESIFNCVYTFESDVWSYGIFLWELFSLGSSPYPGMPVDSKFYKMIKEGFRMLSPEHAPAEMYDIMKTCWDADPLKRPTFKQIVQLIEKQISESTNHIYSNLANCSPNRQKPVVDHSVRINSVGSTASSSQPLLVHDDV
# Protocol: as §1, §2
# c-KIT kinase: in the test experiment of KIT kinase phosphorylation in the cells, human acute megakaryocytic leukemia cell line M07e having endogenous high expression wild type c-KIT is used. When these cells are stimulated with human stem cell factor (SCF), the tyrosine of KIT receptor kinases is self-phosphorylated. M07e cells are inoculated in RPMI containing 20% fetal calf serum (FCS) and 10 ng/ml GM-CSF in a multi-well cell culture dish. The compound of the invention is added to the cells after overnight starvation of serum and growth factor, then the cells are cultured in a medium without serum. […]
compound,measurement,setting,value
"CCOP(=O)(CN1CCC(COc2cc3nccc(Oc4ccc(NC(=O)C5(C(=O)Nc6ccc(F)cc6)CC5)cc4F)c3cc2OC)CC1)OCC [Example 10, N1-[4-[[7-[[1-(diethoxyphosphorylmethyl)-4-piperidinyl]methoxyl]-6-methoxyl-4-quinolyl]oxyl]-3-fluorophenyl]-N1′-(4-fluorophenyl)cyclopropane-1,1-dicarboxamide]",IC50,VEGFR2,0.43 nM
same,IC50,c-MET,17 nM
same,% Ctrl@1000 nM,PFCDPK1 (P. falciparum),84 % Ctrl
same,IC50,c-KIT,27 nM
